Among the data in US4880809A, “1,4-disubstituted piperazines (or homopiperazines) as platelet-activating factor antagonists” (Takeda Chemical Industries, Ltd., priority 1987, dated 1989) are inhibition and inhibition in vivo values, retold here.

Molecules are shown by their SMILES. Counter-ions that a name gives are not always drawn.

Assay [1] has as its system PAF-Induced Platelet Aggregation. Kind of assay: Inhibitory Action on PAF-Induced Platelet Aggregation. It is filed as cell-based, New Zealand white male rabbits. Particulars: Oryctolagus cuniculus, Drug Concentration: 3 × 10^-5 M, rabbit PRP.
Procedure: Blood was collected from the hearts of conscious New Zealand white male rabbits weighing 2 to 3 kg using citric acid as an anticoagulant (one volume part of 3.15% citric acid per 9 volume parts of the whole blood). The blood was subjected to a centrifuge at 800 rpm for ten minutes to obtain platelet rich plasma (PRP). The remaining blood after collecting the PRP was subjected to a centrifuge at 3000 rpm for ten minutes to obtain platelet poor plasma (PPP). PRP was diluted with PPP, and the number of platelets was adjusted to 500,000/μl. Platelet aggregation was examined by means of turbidimetry [Born, Nature, 194, 927-929 (1962)] with 8 channel aggregometer (NBS HEMA TRACER 6 Nikoh, Bioscience, Japan). More concretely, PRP (250 μl) was kept warm (37° C.) for three minutes in a silicon-processed cuvette, to which was added a test sample (25 μl) dissolved in a physiological saline or in 10mM dimethylsulfoxide followed by dilution with a physiological saline. Two minutes later, PAF (25 μl, 3×10^-9 -1×10^-8 M), dissolved in a physiological saline, was added and then the maximum aggregation rate was determined. As the control, physiological saline without test sample was added to the cuvette, and the inhibitory rate thereon was determined.
For another assay, the system named is PAF-Induced Hypotension. As to the kind of experiment: Inhibitory Action on PAF-Induced Hypotension. It is filed as in vivo, SD (Jcl) male rats. Particulars: po, 30 mg/kg p.o., rat. As to the method: SD (Jcl) male rats of 6 to 8 week old were subjected to the experiment. After fasting overnight, the rats were cannulated into the femoral artery and vein under anesthesia with pentobarbital. A transducer (MPU-0.5-290O-III, TOYO BALDWIN, Japan) was connected with the artery cannula, and blood pressure was continuously measured. […] The rate of inhibition of lowering of blood pressure after administration of the test samples against the control was evaluated.

By inhibition is commonly meant how much of the control response was suppressed. Read a low inhibition as little suppression. By inhibition in vivo is commonly meant the percentage by which the read-out fell short of the control. Turning to `COc1cc2c(cc1OC)CCC(C(=O)N1CCN(Cc3cc(OC)c(OC)c(OC)c3)CC1)=C2` [Example 5, 1-(6,7-dimethoxy-1,2-dihydro-3-naphthoyl)-4-(3,4,5-trimethoxybenzyl)piperazine hydrochloride], the inhibition at 30 µM in assay [1] is 100%. Moreover, the values for the inhibition in vivo at 30 mg/kg in the assay with PAF-Induced Hypotension (after 1 hr), with PAF-Induced Hypotension (after 2 hrs) and with PAF-Induced Hypotension (after 4 hrs) were 77%, 75% and 49%, respectively.

With `COc1cc(CN2CCN(C(=O)c3ccc4c(c3)C(O)c3ccccc3-4)CC2)cc(OC)c1OC` (centres unmarked) [Example 39, 1-(9-hydroxy-2-fluorenylcarbonyl)-4-(3,4,5-trimethoxybenzyl)piperazine hydrochloride], in assay [1], 30 µM produced 100% inhibition. The results for the inhibition in vivo at 30 mg/kg in the assay with PAF-Induced Hypotension (after 1 hr), with PAF-Induced Hypotension (after 2 hrs) and in the assay on PAF-Induced Hypotension (after 4 hrs) were 70%, 64% and 47%, respectively.

With `COc1cc2c(cc1OC)CCCC(C(=O)N1CCN(Cc3cc(OC)c(OC)c(OC)c3)CC1)=C2` [Example 49, 1-(2,3-dimethoxy-6,7-dihydro-5H-benzocyclohepten-8-ylcarbonyl)-4-(3,4,5-trimethoxybenzyl)piperazine hydrochloride], the inhibition at 30 µM in assay [1] came to 100%. Moreover, the inhibition in vivo at 30 mg/kg with PAF-Induced Hypotension (after 1 hr) is 94%; with PAF-Induced Hypotension (after 2 hrs), 97%; in the assay on PAF-Induced Hypotension (after 4 hrs), 88%.

Compound `CCCOc1cc2c(cc1OCCC)CCC(C(=O)N1CCN(Cc3cc(OC)c(OC)c(OC)c3)CC1)=C2` [Example 60, 1-(6,7-dipropoxy-1,2-dihydro-3-naphthoyl)-4-(3,4,5-trimethoxybenzyl)-piperazine hydrochloride] returned an inhibition at 30 µM in assay [1] of 100%. The inhibition in vivo at 30 mg/kg with PAF-Induced Hypotension (after 1 hr) stood at 79%; with PAF-Induced Hypotension (after 2 hrs) it was 69%; in the assay with PAF-Induced Hypotension (after 4 hrs), 60%.

The compound `CCOc1cc2c(cc1OCC)CCC(C(=O)N1CCN(Cc3cc(OC)c(OC)c(OC)c3)CC1)=C2` [Example 58, 1-(6,7-diethoxy-1,2-dihydro-3-naphthoyl)-4-(3,4,5-trimethoxybenzyl)piperazine hydrochloride] came in with an inhibition at 30 µM in assay [1] of 100%. The results for the inhibition in vivo at 30 mg/kg with PAF-Induced Hypotension (after 1 hr), in the assay with PAF-Induced Hypotension (after 2 hrs) and in the assay with PAF-Induced Hypotension (after 4 hrs) were 88%, 95% and 65%, respectively.

For the compound `CCOc1cc2c(cc1OCC)CCC(C(=O)N1CCN(C(=O)c3cc(OC)c(OC)c(OC)c3)CC1)=C2` [Example 65, 1-(6,7-diethoxy-1,2-dihydro-3-naphthoyl)-4-(3,4,5-trimethoxybenzoyl)piperazine], the inhibition at 30 µM in assay [1] was found to be 100%. Moreover, the values for the inhibition in vivo at 30 mg/kg in the assay on PAF-Induced Hypotension (after 1 hr), with PAF-Induced Hypotension (after 2 hrs) and in the assay on PAF-Induced Hypotension (after 4 hrs) were 100%, 100% and 77%, respectively.

As for `COc1cc2c(cc1OC)CCCCC(C(=O)N1CCN(Cc3cc(OC)c(OC)c(OC)c3)CC1)=C2` [Example 84, 1-(2,3-dimethoxy-5,6,7,8-tetrahydrobenzocycloocten-9-ylcarbonyl)-1-(3,4,5-trimethoxybenzyl)piperazine hydrochloride], the inhibition at 30 µM in assay [1] stood at 100%. Also, the inhibition in vivo at 30 mg/kg in the assay with PAF-Induced Hypotension (after 1 hr) worked out at 100%; in the assay with PAF-Induced Hypotension (after 2 hrs) it was 100%; with PAF-Induced Hypotension (after 4 hrs), 73%.

Take `COc1cc2c(cc1OC)CCC(C(=O)N1CCN(C(=O)c3cc(OC)c(OC)c(OC)c3)CC1)=C2` [Example 56, 1-(6,7-dimethoxy-1,2-dihydro-3-naphthoyl)-4-(3,4,5-trimethoxybenzoyl)piperazine]: in assay [1], the inhibition at 30 µM was 100%. Further, the inhibition in vivo at 30 mg/kg in the assay on PAF-Induced Hypotension (after 1 hr) stood at 100%; in the assay with PAF-Induced Hypotension (after 2 hrs) it was 97%; in the assay with PAF-Induced Hypotension (after 4 hrs), 88%.

On to `CCCOc1cc2c(cc1OCCC)CCC(C(=O)N1CCN(C(=O)c3cc(OC)c(OC)c(OC)c3)CC1)=C2` [Example 66, 1-(6,7-dipropoxy-1,2-dihydro-3-naphthoyl)-4-(3,4,5-trimethoxybenzoyl)piperazine], for which testing at 30 µM in assay [1] gave an inhibition of 100%. Further, the values for the inhibition in vivo at 30 mg/kg in the assay on PAF-Induced Hypotension (after 1 hr), with PAF-Induced Hypotension (after 2 hrs) and in the assay on PAF-Induced Hypotension (after 4 hrs) were 77%, 79% and 68%, respectively.

Take `COc1cc2c(cc1OC)CCCCC(C(=O)N1CCN(C(=O)c3cc(OC)c(OC)c(OC)c3)CC1)=C2` [Example 85, 1-(2,3-dimethoxy-5,6,7,8-tetrahydrobenzocycloocten-9-ylcarbonyl)-4-(3,4,5-trimethoxybenzoyl)piperazine]: the inhibition at 30 µM in assay [1] came out at 100%. Besides, the inhibition in vivo at 30 mg/kg in the assay on PAF-Induced Hypotension (after 1 hr), in the assay on PAF-Induced Hypotension (after 2 hrs) and with PAF-Induced Hypotension (after 4 hrs) was 100% throughout.

In turn, `COc1cc(CN2CCN(C(=O)c3ccc4ccccc4c3)CC2)cc(OC)c1OC` [Example 7, 1-(2-naphthoyl)-4-(3,4,5-trimethoxybenzyl)piperazine hydrochloride] had an inhibition at 30 µM in assay [1] of 95%.

`COc1cc(CN2CCN(C(=O)c3ccc4c(c3)C(=O)c3ccccc3C4=O)CC2)cc(OC)c1OC` [Example 26, 1-(2-anthraquinonylcarbonyl)-4-(3,4,5-trimethoxybenzyl)piperazine]: in assay [1], 30 µM produced 91% inhibition.

In assay [1], `COc1cc(CN2CCN(C(=O)C3=Cc4cc(OC)c(OC)c(OC)c4CC3)CC2)cc(OC)c1OC` [Example 10, 1-(6,7,8-trimethoxy-1,2-dihydro-3-naphthoyl)-4-(3,4,5-trimethoxybenzyl)piperazine hydrochloride] showed an inhibition at 30 µM of 87%.

As to `CCOc1cc2c(cc1OCC)CCCC(C(=O)N1CCN(Cc3cc(OC)c(OC)c(OC)c3)CC1)=C2` [Example 72, 1-(2,3-diethoxy-6,7-dihydro-5H-benzocyclohepten-8-ylcarbonyl)-4-(3,4,5-trimethoxybenzyl)piperazine hydrochloride], the inhibition at 30 µM in assay [1] stood at 100%. Further, the inhibition in vivo at 30 mg/kg in the assay with PAF-Induced Hypotension (after 1 hr) stood at 98%; in the assay on PAF-Induced Hypotension (after 2 hrs), 99%; in the assay on PAF-Induced Hypotension (after 4 hrs), 75%.
